{"source": "patent US6472418B1", "about": "“Non-peptide NK1 receptors antagonists” (Warner-Lambert Company, priority 1998, dated 2002)"}
{"target": "T1, Human NK1 Receptor (Homo sapiens, UniProt P25103)", "T1 construct": "endogenous in cells; host or cells: Human lymphoma IM9 cells (whole cells)", "T1 sequence (P25103 whole entry)": "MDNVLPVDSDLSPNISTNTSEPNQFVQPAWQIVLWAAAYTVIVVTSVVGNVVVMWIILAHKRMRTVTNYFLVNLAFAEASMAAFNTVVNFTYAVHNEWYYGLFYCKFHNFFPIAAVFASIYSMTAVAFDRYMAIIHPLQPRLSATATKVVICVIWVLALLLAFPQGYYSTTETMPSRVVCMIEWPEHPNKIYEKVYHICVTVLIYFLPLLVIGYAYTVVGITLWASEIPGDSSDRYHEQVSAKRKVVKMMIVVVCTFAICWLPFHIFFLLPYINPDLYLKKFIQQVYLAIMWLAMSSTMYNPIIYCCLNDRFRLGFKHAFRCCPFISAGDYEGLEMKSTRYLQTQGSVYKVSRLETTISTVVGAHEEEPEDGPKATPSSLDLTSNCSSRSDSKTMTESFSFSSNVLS", "assay": "In Vitro Human NK1 Receptor Binding Assay ([125I]Bolton-Hunter substance P displacement, IM9 cells)", "details": "Human lymphoma IM9 cells, [125I]Bolton-Hunter substance P; Table 3, array-synthesis products; read-out: IC50 (nM) hNK1", "experimental": "(§1) They have been evaluated in an NK1-receptor binding assay which is described below.\n(§2) Human lymphoma IM9 cells were grown in RPMI 1640 culture medium supplemented with 10% fetal calf serum and 2 mM glutamine and maintained under an atmosphere of 5% CO2. Cells were passaged every 3-4 days by reseeding to a concentration of 4-8×10^6/40 ml per 175 cm^2 flask. Cells were harvested for experiments by centrifugation at 1000 g for 3 min. Pelleted cells were washed once by resuspension into assay buffer (50 mM Tris HCl pH 7.4, 3 mM MnCl2, 0.02% BSA, […] bacitracin, […] chymostatin, 2 mM phosphoramidon, […] leupeptin) and repeating the centrifugation step before resuspending at a concentration of 2.5×10^6 cells/mL assay buffer. Cells ([…]) were incubated with [^125I]Bolton-Hunter substance P (0.05-0.1 nM) in the presence and absence of varying concentrations of test compounds for 50 min at 21° C. Non-specific binding (10% of the total binding observed under these conditions) was defined by […] [Sar^9, Met(02)^11] substance P. Reactions were terminated by rapid filtration under vacuum onto GF\\C filters presoaked in 0.2% PEI for 1-2 h, using a Brandel cell harvester. Filters were washed with 6×1 ml ice-cold Tris HCl (50 mM, pH 7.4) and radioactivity bound determined using a gamma couter. Results were analyzed using iterative curve fitting procedures in RS1 or Graphpad Inplot.", "units": {"IC50": "nM"}}
{"compound": "O=C(NC1CCCCC1O)C(Cc1c[nH]c2ccccc12)NCc1cc2ccccc2o1", "note": "(centres unmarked) [Example 270, 2-[(Benzofuran-2-ylmethyl)-amino]-N-(2-hydroxy-cyclohexyl)-3-(1H-indol-3-yl)-propionamide]", "IC50": "> 10000"}
{"compound": "O=C(NC1CC1c1ccccc1)C(Cc1c[nH]c2ccccc12)NCc1cc2ccccc2o1", "note": "(centres unmarked) [Example 224, 2-[(Benzofuran-2-ylmethyl)-amino]-3-(1H-indol-3-yl)-N-(2-phenyl-cyclopropyl)-propionamide]", "IC50": 2900}
{"compound": "O=C(NC(CO)Cc1ccccc1)C(Cc1c[nH]c2ccccc12)NCc1cc2ccccc2o1", "note": "(centres unmarked) [Example 289, 2-[(Benzofuran-2-ylmethyl)-amino]-N-(1-hydroxymethyl-2-phenyl-ethyl)-3-(1H-indol-3-yl)-propionamide]", "IC50": 209}
{"compound": "CC(NC(=O)C(Cc1c[nH]c2ccccc12)NCc1cc2ccccc2o1)c1ccc(Br)cc1", "note": "(centres unmarked) [Example 290, 2-[(Benzofuran-2-ylmethyl)-amino]-N-[1-(4-bromo-phenyl)-ethyl]-3-(1H-indol-3-yl)-propionamide]", "IC50": 8}
{"compound": "O=C(NC1CCCc2ccccc21)C(Cc1c[nH]c2ccccc12)NCc1cc2ccccc2o1", "note": "(centres unmarked) [Example 194, 2-[(Benzofuran-2-ylmethyl)-amino]-3-(1H-indol-3-yl)-N-(1,2,3,4-tetrahydro-naphthalen-1-yl)-propionamide]", "IC50": 703}
{"compound": "O=C(NCc1cccc(O)c1)C(Cc1c[nH]c2ccccc12)NCc1cc2ccccc2o1", "note": "(centres unmarked) [Example 308, 2-[(Benzofuran-2-ylmethyl)-amino]-N-(3-hydroxy-benzyl)-3-(1H-indol-3-yl)-propionamide]", "IC50": 731}
{"compound": "O=C(NCc1ccc(C(F)(F)F)cc1)C(Cc1c[nH]c2ccccc12)NCc1cc2ccccc2o1", "note": "(centres unmarked) [Example 283, 2-[(Benzofuran-2-ylmethyl)-amino]-3-(1H-indol-3-yl)-N-(4-trifluoromethyl-benzyl)-propionamide]", "IC50": 420}
{"compound": "O=C(NC1(CO)CCCC1)C(Cc1c[nH]c2ccccc12)NCc1cc2ccccc2o1", "note": "(centres unmarked) [Example 211, 2-[(Benzofuran-2-ylmethyl)-amino]-N-(1-hydroxymethylcyclopentyl)-3-(1H-indol-3-yl)-propionamide]", "IC50": "> 10000"}
{"compound": "CC(NC(=O)C(Cc1c[nH]c2ccccc12)NCc1cc2ccccc2o1)c1ccc(N(C)C)cc1", "note": "(centres unmarked) [Example 217, 2-[(Benzofuran-2-ylmethyl)-amino]-N-[1-(4-dimethylamino-phenyl)-ethyl]-3-(1H-indol-3-yl)-propionamide]", "IC50": 819}
{"compound": "O=C(NCc1ccc(F)c(Cl)c1)C(Cc1c[nH]c2ccccc12)NCc1cc2ccccc2o1", "note": "(centres unmarked) [Example 229, 2-[(Benzofuran-2-ylmethyl)-amino]-N-(3-chloro-4-fluoro-benzyl)-3-(1H-indol-3-yl)-propionamide]", "IC50": 33}
{"target": "T1, Human NK1 Receptor", "assay": "In Vitro Human NK1 Receptor Binding Assay ([125I]Bolton-Hunter substance P displacement, IM9 cells)", "details": "Table 4; [125I]Bolton-Hunter substance P displacement, human IM9 cells; read-out: IC50 (nM) hNK1", "experimental": "as §1, §2", "units": {"IC50": "nM"}}
{"compound": "CNS(=O)(=O)c1cc(Cl)ccc1CNC(C)(Cc1c[nH]c2ccccc12)C(=O)NC(C)c1ccccc1", "note": "(centres unmarked) [compound 330, 2-(4-Chloro-2-methylsulfamoyl-benzylamino)-3-(1H-indol-3-yl)-2-methyl-N-(1-phenyl-ethyl)-propionamide]", "IC50": 1100}
{"compound": "2-(3-Benzo[1,3]dioxol-5-yl-allylamino)-3-(1H-indol-3-yl)-2-methyl-N-(1-phenyl-ethyl)-propionamide [compound 339]", "IC50": 343}
{"compound": "CC(NC(=O)C(C)(Cc1c[nH]c2ccccc12)NCc1ccc(C=Cc2ccccc2)cc1)c1ccccc1", "note": "(centres unmarked) [compound 351, 3-(1H-Indol-3-yl)-2-methyl-N-(1-phenyl-ethyl)-2-(4-styryl-benzylamino)-propionamide]", "IC50": "> 10000"}
{"target": "T1, Human NK1 Receptor", "assay": "In Vitro Human NK1 Receptor Binding Assay ([125I]Bolton-Hunter substance P displacement, IM9 cells)", "details": "Table 5; [125I]Bolton-Hunter substance P displacement, human IM9 cells; read-out: IC50 (nM) hNK1", "experimental": "as §1, §2", "units": {"IC50": "nM"}}
{"compound": "CC(NC(=O)C(Cc1c[nH]c2ccccc12)NCc1ccc(Oc2ccccc2)cc1)c1ccccc1", "note": "(centres unmarked) [compound 384]", "IC50": 2350}
{"compound": "CC(NC(=O)C(Cc1c[nH]c2ccccc12)NCc1ccccc1OCc1cccnc1)c1ccccc1", "note": "(centres unmarked) [compound 361]", "IC50": 729}
{"compound": "CC(NC(=O)C(Cc1c[nH]c2ccccc12)NCc1cccc(Cl)c1)c1ccccc1", "note": "(centres unmarked) [compound 400]", "IC50": 13}
{"compound": "CC=C(C)CCC=C(C)CNC(Cc1c[nH]c2ccccc12)C(=O)NC(C)c1ccccc1", "note": "(centres unmarked) [compound 389]", "IC50": 2570}
{"compound": "CC(NC(=O)C(Cc1c[nH]c2ccccc12)NCc1ccccc1Sc1ccc(Cl)cc1)c1ccccc1", "note": "(centres unmarked) [compound 387]", "IC50": 201}
{"target": "T1, Human NK1 Receptor", "assay": "In Vitro Human NK1 Receptor Binding Assay ([125I]Bolton-Hunter substance P displacement, IM9 cells)", "details": "human NK1 receptor, IM9 cells, [125I]Bolton-Hunter substance P; read-out: IC50 (nM) hNK1", "experimental": "as §1, §2", "units": {"IC50": "nM"}}
{"compound": "CC(Cc1c[nH]c2ccccc12)(NCc1cc2ccccc2o1)C(=O)NCc1ccc(Cl)cc1Cl", "note": "(centres unmarked) [compound 46, 2-[(Benzofuran-2-ylmethyl)-amino]-N-(2,4-dichloro-benzyl)-3-(1H-indol-3-yl)-2-methyl-propionamide]", "IC50": 1560}
{"compound": "CC(Cc1c[nH]c2ccccc12)(NCc1cc2ccccc2o1)C(=O)NCC(=O)c1nc[nH]c1N", "note": "(centres unmarked) [compound 95, N-[2-(5-Amino-1H-imidazol-4-yl)-2-oxo-ethyl]-2-[(benzofuran-2-ylmethyl)-amino]-3-(1H-indol-3-yl)-2-methyl-propionamide]", "IC50": "> 10000"}
{"compound": "CC(NC(=O)C(C)(Cc1c[nH]c2ccccc12)NCc1cc2ccccc2o1)c1cccc2ccccc12", "note": "(centres unmarked) [compound 32, 2-[(Benzofuran-2-ylmethyl)-amino]-3-(1H-indol-3-yl)-2-methyl-N-(1-naphthalen-1-yl-ethyl)-propionamide]", "IC50": "> 10000"}
{"compound": "CC(Cc1c[nH]c2ccccc12)(NCc1cc2ccccc2o1)C(=O)NCc1cccs1", "note": "(centres unmarked) [compound 137, 2-[(Benzofuran-2-ylmethyl)-amino]-3-(1H-indol-3-yl)-2-methyl-N-thiophen-2-ylmethyl-propionamide]", "IC50": 100}
{"compound": "CC(Cc1c[nH]c2ccccc12)(NCc1cc2ccccc2o1)C(=O)NCC1CC2CCC1C2", "note": "(centres unmarked) [compound 165, 2-[(Benzofuran-2-ylmethyl)-amino]-N-bicyclo[2.2.1]hept-2-ylmethyl-3-(1H-indol-3-yl)-2-methyl-propionamide]", "IC50": "> 10000"}
{"compound": "CC(Cc1c[nH]c2ccccc12)(NCc1cc2ccccc2o1)C(=O)NCCc1ccco1", "note": "(centres unmarked) [compound 115, 2-[(Benzofuran-2-ylmethyl)-amino]-N-(2-furan-2-yl-ethyl)-3-(1H-indol-3-yl)-2-methyl-propionamide]", "IC50": 154}
{"compound": "CCC(NC(=O)C(C)(Cc1c[nH]c2ccccc12)NCc1cc2ccccc2o1)c1cccs1", "note": "(centres unmarked) [compound 114, 2-[(Benzofuran-2-ylmethyl)-amino]-3-(1H-indol-3-yl)-2-methyl-N-(1-thiophen-2-yl-propyl)-propionamide]", "IC50": 128}
{"compound": "CC(Cc1c[nH]c2ccccc12)(NCc1cc2ccccc2o1)C(=O)NCc1cccc(N)c1", "note": "(centres unmarked) [compound 178, N-(3-Amino-benzyl)-2-[(benzofuran-2-ylmethyl)-amino]-3-(1H-indol-3-yl)-2-methyl-propionamide]", "IC50": 1370}
{"compound": "CC(Cc1c[nH]c2ccccc12)(NCc1cc2ccccc2o1)C(=O)NCc1ccc(N)cc1", "note": "(centres unmarked) [compound 62, N-(4-Amino-benzyl)-2-[(benzofuran-2-ylmethyl)-amino]-3-(1H-indol-3-yl)-2-methyl-propionamide]", "IC50": 837}
{"compound": "CC(NC(=O)C(C)(Cc1c[nH]c2ccccc12)NCc1cc2ccccc2o1)c1cccc(N)c1", "note": "(centres unmarked) [compound 37, N-[1-(3-Amino-phenyl)-ethyl]-2-[(benzofuran-2-ylmethyl)-amino]-3-(1H-indol-3-yl)-2-methyl-propionamide]", "IC50": 364}
{"compound": "CN1Cc2ccccc2CC1CNC(=O)C(C)(Cc1c[nH]c2ccccc12)NCc1cc2ccccc2o1", "note": "(centres unmarked) [compound 106, 2-[(Benzofuran-2-ylmethyl)-amino]-3-(1H-indol-3-yl)-2-methyl-N-(2-methyl-1,2,3,4-tetrahydro-isoquinolin-3-ylmethyl)-propionamide]", "IC50": 4630}
